Measured values reported in US9980904B2, “Dry powder formulation” (Teva Branded Pharmaceutical Products R&D, Inc., priority 2014, dated 2018).

Columns and labels:
Type in all cases: physicochemical
[1] = Study 1 equilibration study: aerodynamic particle size distribution analysis (FPF and FPD) after 6 week equilibration
Experimental: (§1) Two batches of fluticasone/salmeterol housed within a Spiromax® device were prepared. […] Each batch was divided into two and equilibrated for six weeks under the conditions specified by each protocol. Protocol 1: 30° C./65% RH (unwrapped) Protocol 2: 40° C. […] Two batches of fluticasone/salmeterol housed within a Spiromax® device were prepared. Combination batches of fluticasone propionate and salmeterol xinafoate were selected at two different strengths, as in study 1. Each batch was divided into two and equilibrated for six weeks under the conditions specified by each protocol. Protocol 1: 30° C./65% RH (unwrapped) Protocol 3: 40° C.

[2] = Study 3 eight week in-use stability study: aerodynamic particle size distribution (FPF and FPD); conditions: eight week in-use at 30° C./65% RH (unwrapped) after equilibration by protocol 2
Experimental: (§2) Following inhaler equilibration according to protocol 2 (six weeks at 40° C./75% RH wrapped in foil with desiccant), eight-week stability tests of fluticasone propionate and salmeterol xinafoate (25 μg/25 μg and 100 μg/25 μg) were conducted. The in-use stability testing was conducted at 30° C./65% RH (unwrapped) as per discussion with the FDA. […] Following inhaler equilibration according to protocol 3 (six weeks at 40° C. wrapped in foil with desiccant), six-month stability tests of fluticasone propionate and salmeterol xinafoate (25 μg/25 μg and 100 μg/25 μg) were conducted. The stability of the formulations was assessed following storage under two different condition sets.

[3] = Study 4 six month stability study: aerodynamic particle size distribution (FPF and FPD)
Experimental: as §2

[4] = Study 2 equilibration study: aerodynamic particle size distribution analysis (FPF and FPD) during 6 week equilibration
Experimental: as §1

[5] = Study 1, batch 25/25 μg Fp/Sx in Spiromax, 30° C./65% RH (unwrapped)
[6] = Study 1, batch 25/25 μg, 40° C. (wrapped in foil with desiccant)
[7] = Study 1, batch 100/25 μg, 30° C./65% RH (unwrapped)
[8] = Study 1, batch 100/25 μg, 40° C. (wrapped in foil with desiccant)
[9] = Study 4, batch 25/25, six month storage at 25° C./60% RH (wrapped) after equilibration by protocol 3
[10] = Study 4, batch 25/25, six month storage at 40° C. (wrapped) after equilibration by protocol 3
[11] = Study 4, batch 100/25, six month storage at 25° C./60% RH (wrapped) after equilibration by protocol 3
[12] = Study 4, batch 100/25, six month storage at 40° C. (wrapped) after equilibration by protocol 3
[13] = Study 2, batch 25/25 μg, 30° C./65% RH (unwrapped)
[14] = Study 2, batch 25/25 μg, 40° C. (wrapped in foil with desiccant)
[15] = Study 2, batch 100/25 μg, 30° C./65% RH (unwrapped)
[16] = Study 2, batch 100/25 μg, 40° C. (wrapped in foil with desiccant)

SMILES: CCC(=O)O[C@]1(C(=O)SCF)[C@H](C)C[C@H]2[C@@H]3C[C@H](F)C4=CC(=O)C=C[C@]4(C)[C@@]3(F)[C@@H](O)C[C@@]21C [Fp, fluticasone propionate]
- Aerodynamic particle size distribution (% change from base) FPD [1, 5]: −16%
- Aerodynamic particle size distribution (% change from base) FPF [1, 5]: −19%
- Aerodynamic particle size distribution (% change from base) FPD [1, 6]: −13%
- Aerodynamic particle size distribution (% change from base) FPF [1, 6]: −12%
- Aerodynamic particle size distribution (% change from base) FPD [1, 7]: −13%
- Aerodynamic particle size distribution (% change from base) FPF [1, 7]: −12%
- Aerodynamic particle size distribution (% change from base) FPD [1, 8]: −17%
- Aerodynamic particle size distribution (% change from base) FPF [1, 8]: −14%
- Aerodynamic particle size distribution (% change from base) FPD ([2]; Study 3, batch 25/25 μg): −10%
- Aerodynamic particle size distribution (% change from base) FPF ([2]; Study 3, batch 25/25 μg): −9%
- Aerodynamic particle size distribution (% change from base) FPD ([2]; Study 3, batch 100/25 μg): 0%
- Aerodynamic particle size distribution (% change from base) FPF ([2]; Study 3, batch 100/25 μg): 0%
- Aerodynamic particle size distribution (% change from base) FPD [3, 9]: −4%
- Aerodynamic particle size distribution (% change from base) FPF [3, 9]: 0%
- Aerodynamic particle size distribution (% change from base) FPD [3, 10]: −9%
- Aerodynamic particle size distribution (% change from base) FPF [3, 10]: −6%
- Aerodynamic particle size distribution (% change from base) FPD [3, 11]: 0%
- Aerodynamic particle size distribution (% change from base) FPF [3, 11]: 0%
- Aerodynamic particle size distribution (% change from base) FPD [3, 12]: −8%
- Aerodynamic particle size distribution (% change from base) FPF [3, 12]: −6%
- Aerodynamic particle size distribution (% change from base) FPD [4, 13]: −19%
- Aerodynamic particle size distribution (% change from base) FPF [4, 13]: −16%
- Aerodynamic particle size distribution (% change from base) FPD [4, 14]: −13%
- Aerodynamic particle size distribution (% change from base) FPF [4, 14]: −12%
- Aerodynamic particle size distribution (% change from base) FPD [4, 15]: −12%
- Aerodynamic particle size distribution (% change from base) FPF [4, 15]: −12%
- Aerodynamic particle size distribution (% change from base) FPD [4, 16]: −16%
- Aerodynamic particle size distribution (% change from base) FPF [4, 16]: −14%

SMILES: OCc1cc(C(O)CNCCCCCCOCCCCc2ccccc2)ccc1O (centres unmarked) [Sx, salmeterol xinafoate]
- Aerodynamic particle size distribution (% change from base) FPD [1, 5]: −20%
- Aerodynamic particle size distribution (% change from base) FPF [1, 5]: −19%
- Aerodynamic particle size distribution (% change from base) FPD [1, 6]: −2%
- Aerodynamic particle size distribution (% change from base) FPF [1, 6]: −2%
- Aerodynamic particle size distribution (% change from base) FPD [1, 7]: −9%
- Aerodynamic particle size distribution (% change from base) FPF [1, 7]: −10%
- Aerodynamic particle size distribution (% change from base) FPD [1, 8]: 0%
- Aerodynamic particle size distribution (% change from base) FPF [1, 8]: 0%
- Aerodynamic particle size distribution (% change from base) FPD ([2]; Study 3, batch 25/25 μg): −17%
- Aerodynamic particle size distribution (% change from base) FPF ([2]; Study 3, batch 25/25 μg): −14%
- Aerodynamic particle size distribution (% change from base) FPD ([2]; Study 3, batch 100/25 μg): −4%
- Aerodynamic particle size distribution (% change from base) FPF ([2]; Study 3, batch 100/25 μg): −3%
- Aerodynamic particle size distribution (% change from base) FPD [3, 9]: −5%
- Aerodynamic particle size distribution (% change from base) FPF [3, 9]: 0%
- Aerodynamic particle size distribution (% change from base) FPD [3, 10]: −9%
- Aerodynamic particle size distribution (% change from base) FPF [3, 10]: −4%
- Aerodynamic particle size distribution (% change from base) FPD [3, 11]: −3%
- Aerodynamic particle size distribution (% change from base) FPF [3, 11]: −1%
- Aerodynamic particle size distribution (% change from base) FPD [3, 12]: −13%
- Aerodynamic particle size distribution (% change from base) FPF [3, 12]: −9%
- Aerodynamic particle size distribution (% change from base) FPD [4, 13]: −20%
- Aerodynamic particle size distribution (% change from base) FPF [4, 13]: −18%
- Aerodynamic particle size distribution (% change from base) FPD [4, 14]: −2%
- Aerodynamic particle size distribution (% change from base) FPF [4, 14]: −2%
- Aerodynamic particle size distribution (% change from base) FPD [4, 15]: −9%
- Aerodynamic particle size distribution (% change from base) FPF [4, 15]: −10%
- Aerodynamic particle size distribution (% change from base) FPD [4, 16]: 0%
- Aerodynamic particle size distribution (% change from base) FPF [4, 16]: 0%
